Values quoted from earlier work in article PMC8364112 (Proceedings of the National Academy of Sciences of the …, 2021).

Test system: PTH2R
Settings: for mode of action on PTH2R: potent / mild / weak, ref [4], [16]

| Molecule | mode of action on PTH2R [13] | action on PTH2R (ref [3], [4], [13]) | effect of position 5 substitution on potency on PTH2R (ref [27]) |
| --- | --- | --- | --- |
| PTH-related peptide [PTHrP] | weak | weak action on PTH2R |  |
| parathyroid hormone (SVSEIQLMHNLGKHLNSMERVEWLRKKLQDVHNF; Parathyroid hormone; UniProt P01270 32-65, looked up, fragment) [PTH] | mild |  |  |
| substitution of Ile5^P of PTH with a histidine: PTH with Ile5 substituted with a histidine (peptide, UniProt P01270 32-115, looked up, variant I5H, Parathyroid hormone) Parathyroid hormone: SVSEHQLMHNLGKHLNSMERVEWLRKKLQDVHNFVALGAPLAPRDAGSQRPRKKEDNVLVESHEKSLGEADKADVNVLTKAKSQ |  |  | decreases the peptide potency |
